In US4663320A, “(2-oxo-1,2,3,5-tetrahydroimidazo[2,1-b]quinoazolinyl)oxyalkylamides, compositions and the use thereof” (Syntex (U.S.A.) Inc., priority 1985, dated 1987):

Key:
[1] = test system: Human platelet cyclic AMP phosphodiesterase; test: Cyclic AMP phosphodiesterase assay (human platelet); assay type: biochemical; conditions: for IC50: human platelet phosphodiesterase, 1 μM cyclic AMP as substrate; for Relative Potency: relative to theophylline (assigned a value of 1) on human platelet phosphodiesterase
Procedure: (§1) The inhibition of cyclic AMP phosphodiesterase activity by the subject compounds was assayed by the method of Filburn and Karn, Analyt. Biochem., 52:505-516 (1973), using 1 μM cyclic AMP as the substrate. Human platelet cyclic AMP phosphodiesterase was obtained from human donors. Platelets were isolated and washed by centrifugation, the membranes ruptured by a sequential freeze-thaw procedure and hypotonic lysis and the soluble enzyme isolated by high speed centrifugation. The enzyme was stored in aliquots at -20° C.
(§2) This table contains the IC50 values for human platelet phosphodiesterase and IC25 values for rat heart phosphodiesterase.

Mongrel dogs = test: Inotropic activity in anesthetized dogs; assay type: in vivo; conditions: dog
Procedure: Mongrel dogs were anesthetized intravenously with 35 mg/Kg sodium pentobarbital and supplemented as needed. Blood pressure was measured with a Statham pressure transducer via a cannula inserted from a femoral artery into the abdominal aorta. Heart rate was recorded by a cardiotachometer from a lead II electrocardiogram. Right ventricular contractile force was recorded from a Walton-Brodie strain gauge sutured to the right ventricle following a midsternal thoracotomy. A Harvard respirator was used to ventilate the dogs with room air through an endotracheal tube. The dog was bilaterally vagotomized. Following a midline laparotomy, a cannula was sutured into the duodenum for intraduodenal administration of test compound. A femoral vein was cannulated for administration of isoproterenol. All data were recorded on a Beckman R611 Dynograph.
To assess the responsiveness of each dog, isoproterenol was given intravenously at half-log interval doses from 0.007 to 2.1 or 6.67 μg/Kg. The test compound was then administered intraduodenally, usually at a low dose of 2 mg/Kg and subsequently at higher doses of 6.32 and/or 20 mg/Kg, if necessary. In a few instances, some compounds administered intraduodenally at dose levels from 0.316 to 3.16 mg/Kg.

[2] = test system: rat heart phosphodiesterase; test: Cyclic AMP phosphodiesterase inhibition (rat heart); assay type: biochemical
Procedure: as §1, §2

Row | SMILES | IC50 [1] [nM] | Relative Potency [1] | Rat Heart IC25 [2] | also measured
1 | CC(=O)OCCN(C(=O)CCCOc1ccc2c(c1)CN1CC(=O)NC1=N2)C1CCCCC1 [N-cyclohexyl-N-(acetoxyethyl)-4-(2-oxo-1,2,3,5-tetrahydroimidazo[2,1-b]quinazolin-7-yl)oxybutyramide] | 1.4 | 193,000 |  | 
2 | CC(C)C(=O)OCCN(C(=O)CCCOc1ccc2c(c1)CN1CC(=O)NC1=N2)C1CCCCC1 | 1.1 | 245,000 |  | 
3 | C[C@H]1C(=O)NC2=Nc3ccc(OCCCC(=O)N(C)C4CCCCC4)cc3CN21 [N-cyclohexyl-N-methyl-4-(2-oxo-3-L-methyl-1,2,3,5-tetrahydroimidazo[2,1-b]quinzolin-7-yl)oxybutyramide] |  |  |  | Blood Pressure, peak effect as % of max. isoproterenol (Mongrel dogs; i.v., 0.1 mg/kg): 97%; Heart Rate, peak effect as % of max. isoproterenol (Mongrel dogs; i.v., 0.1 mg/kg): 55%; Rt. Ventricular Contractile Force, peak effect as % of max. isoproterenol (Mongrel dogs; i.v., 0.1 mg/kg): 32%; Blood Pressure, peak effect as % of max. isoproterenol (Mongrel dogs; intraduodenal, 0.316 mg/kg): 17%; Heart Rate, peak effect as % of max. isoproterenol (Mongrel dogs; intraduodenal, 0.316 mg/kg): 11%; Rt. Ventricular Contractile Force, peak effect as % of max. isoproterenol (Mongrel dogs; intraduodenal, 0.316 mg/kg): 23%; Blood Pressure, peak effect as % of max. isoproterenol (Mongrel dogs; intraduodenal, 1.0 mg/kg): 54%; Heart Rate, peak effect as % of max. isoproterenol (Mongrel dogs; intraduodenal, 1.0 mg/kg): 44%; Rt. Ventricular Contractile Force, peak effect as % of max. isoproterenol (Mongrel dogs; intraduodenal, 1.0 mg/kg): 69%; Blood Pressure, peak effect as % of max. isoproterenol (Mongrel dogs; intraduodenal, 3.16 mg/kg): 94%; Heart Rate, peak effect as % of max. isoproterenol (Mongrel dogs; intraduodenal, 3.16 mg/kg): 58%; Rt. Ventricular Contractile Force, peak effect as % of max. isoproterenol (Mongrel dogs; intraduodenal, 3.16 mg/kg): 55%
4 | CN(C(=O)CCCOc1cccc2c1N=C1NC(=O)CN1C2)C1CCCCC1 [N-cyclohexyl-N-methyl-4-(2-oxo-1,2,3,5-tetrahydroimidazo[2,1-b]quinazolin-9-yl)oxybutyramide] | > 10000 | < 2.7 |  | 
5 | CCN(C(=O)CCCOc1ccc2c(c1)CN1CC(=O)NC1=N2)C1CCCCC1 [N-cyclohexyl-N-ethyl-4-(2-oxo-1,2,3,5-tetrahydroimidazo[2,1-b]quinazolin-7-yl)oxybutyramide] | 1.5 | 180,000 | < 10 nM | 
6 | CN(C(=O)CCCOc1cccc2c1CN1CC(=O)NC1=N2)C1CCCCC1 [N-cyclohexyl-N-methyl-4-(2-oxo-1,2,3,5-tetrahydroimidazo[2,1-b]quinazolin-6-yl)oxybutyramide] | 2000 | 135 |  | 
7 | CN(C(=O)COc1ccc2c(c1)CN1CC(=O)NC1=N2)C1CCCCC1 [N-cyclohexyl-N-methyl-2-(2-oxo-1,2,3,5-tetrahydroimidazo[2,1-b]quinazolin-7-yl)oxyacetamide] | 820 | 330 | 4,400 nM | 
8 | CC(C)(C)C(=O)OCCN(C(=O)CCCOc1ccc2c(c1)CN1CC(=O)NC1=N2)C1CCCCC1 | 1 | 270,000 |  | 
9 | O=C1CN2Cc3cc(OCCCC(=O)N(C4CCCCC4)C4CCCCC4)ccc3N=C2N1 [N,N--dicyclohexyl (n = 3, position 7), N,N-dicyclohexyl-4-(2-oxo-1,2,3,5-tetrahydroimidazo[2,1-b]quinazolin-7-yl)oxybutyramide] | 1.4 | 186,000 | 16 nM | 
10 | COCCN(C(=O)CCCOc1ccc2c(c1)CN1CC(=O)NC1=N2)C1CCCCC1 [N-cyclohexyl-N-(2-methoxyethyl)-4-(2-oxo-1,2,3,5-tetrahydroimidazo[2,1-b]quinazolin-7-yl)oxybutyramide] | 1.3 | 208,000 | < 10 nM | 
11 | O=C1CN2Cc3cc(OCCCC(=O)N(Cc4ccccc4)Cc4ccccc4)ccc3N=C2N1 [N,N--dibenzyl (n = 3, position 7), N,N-dibenzyl-4-(2-oxo-1,2,3,5-tetrahydroimidazo[2,1-b]quinazolin-7-yl)oxybutyramide] | 9.2 | 29,300 | 60 nM | 
12 | O=C1CN2Cc3cc(OCCCC(=O)N(CCOC(=O)c4ccccc4)C4CCCCC4)ccc3N=C2N1 [N-cyclohexyl-N-(benzoyloxyethyl)-4-(2-oxo-1,2,3,5-tetrahydroimidazo[2,1-b]quinazolin-7-yl)oxybutyramide] | 0.94 | 287,000 |  | 
13 | CN(C(=O)CCCOc1ccc2c(c1)CN1CC(=O)NC1=N2)C(c1ccccc1)c1ccccc1 [N-diphenylmethyl-N-methyl-4-(2-oxo-1,2,3,5-tetrahydroimidazo[2,1-b]quinazolin-7-yl)oxybutyramide] | 15 | 18,000 | 60 nM | 
14 | CN(C(=O)CCCOc1ccc2c(c1)N=C1NC(=O)CN1C2)C1CCCCC1 [N-cyclohexyl-N-methyl-4-(2-oxo-1,2,3,5-tetrahydroimidazo[2,1-b]quinazolin-8-yl)oxybutyramide] | 150 | 1,800 |  | 
15 | O=C1CN2Cc3cc(OCCCC(=O)N(CCO)C4CCCCC4)ccc3N=C2N1 [N-cyclohexyl-N-(2-hydroxyethyl)-4-(2-oxo-1,2,3,5-tetrahydroimidazo[2,1-b]quinazolin-7-yl)oxybutyramide] | 12.5 | 21,600 | 70 nM | 
16 | O=C1CN2Cc3cc(OCCCC(=O)N4CCCC5CCCCC54)ccc3N=C2N1 (racemic) [(±)-decahydroquinloninyl-4-(2-oxo-1,2,3,5-tetrahydroimidazo[2,1-b]quinazolin-7-yl)oxybutyramide] | 13.5 | 20,000 | 200 nM | 
17 | CN(Cc1ccccc1)C(=O)CCCOc1ccc2c(c1)CN1CC(=O)NC1=N2 [N--methyl-N--benzyl (n = 3, position 7), N-benzyl-N-methyl-4-(2-oxo-1,2,3,5-tetrahydroimidazo[2,1-b]quinazolin-7-yl)oxybutyramide] | 26 | 10,400 | 240 nM | 
18 | O=C1CN2Cc3cc(OCCCC(=O)NC4CCCCC4)ccc3N=C2N1 [N--cyclohexyl (n = 3, position 7), N-cyclohexyl-4-(2-oxo-1,2,3,5-tetrahydroimidazo-[2,1-b]quinazolin-7-yl)oxybutyramide] | 72 | 38,000 | 180 nM | 
19 | CN(C(=O)CCCCCOc1ccc2c(c1)CN1CC(=O)NC1=N2)C1CCCCC1 [N-cyclohexyl-N-methyl-6-(2-oxo-1,2,3,5-tetrahydroimidazo[2,1-b]quinazolin-7-yl)oxyhexanamide] | 12 | 22,500 | 21 nM | 
20 | CN(C(=O)CCCCCCOc1ccc2c(c1)CN1CC(=O)NC1=N2)C1CCCCC1 [N-cyclohexyl-N-methyl-7-(2-oxo-1,2,3,5-tetrahydroimidazo[2,1-b]quinazolin-7-yl)oxyheptanamide] | 16 | 16,800 | 45 nM | 
21 | O=C1CN2Cc3cc(OCCCC(=O)N4CCCCC4CC(C4CCCCC4)C4CCCCC4)ccc3N=C2N1 (racemic) [perhexylenyl (n = 3, position 7), perhexylenyl-4-(2-oxo-1,2,3,5-tetrahydroimidazo[2,1-b]quinazolin-7-yl)oxybutyramide] | 1.8 | 146,000 | 36 nM | 
22 | CC(C)N(C(=O)CCCOc1ccc2c(c1)CN1CC(=O)NC1=N2)C1CCCCC1 [N-cyclohexyl-N-isopropyl-4-(2-oxo-1,2,3,5-tetrahydroimidazo[2,1-b]quinazolin-7-yl)oxybutyramide] | 3.2 | 84,000 | 15 nM | 
23 | CN(C(=O)CCCOc1ccc2c(c1)CN1CC(=O)NC1=N2)C1CCCCCC1 [N-cycloheptyl-N-methyl-4-(2-oxo-1,2,3,5-tetrahydroimidazo[2,1-b]quinazolin-7-yl)oxybutyramide] | 1 | 270,000 | < 10 nM | 
24 | CN(C(=O)CCCOc1ccc2c(c1)CN1C(=N2)NC(=O)[C@@H]1CO)C1CCCCC1 [N-cyclohexyl-N-methyl-4-(2-oxo-3-L-hydroxymethyl-1,2,3,5-tetrahydroimidazo[2,1-b]quinazolin-7-yl)oxybutyramide] | 27.5 | 9,800 | 90 nM | 
25 | CN(C(=O)CCCOc1ccc2c(c1)CN1CC(=O)NC1=N2)c1ccccc1 [N--methyl-N--phenyl (n = 3, position 7), N-phenyl-N-methyl-4-(2-oxo-1,2,3,5-tetrahydroimidazo[2,1-b]quinazolin-7-yl)oxybutyramide] | 26 | 10,400 | 350 nM | 
26 | CN(C(=O)CCCCOc1ccc2c(c1)CN1CC(=O)NC1=N2)C1CCCCC1 [N-cyclohexyl-N-methyl-5-(2-oxo-1,2,3,5-tetrahydroimidazo[2,1-b]quinazolin-7-yl)oxypentanamide] | 4.6 | 58,700 | 22 nM | 
27 | CN(C(=O)CCCOc1ccc2c(c1)CN1C(=N2)NC(=O)[C@H]1CO)C1CCCCC1 [N-cyclohexyl-N-methyl-4-(2-oxo-3-D-hydroxymethyl-1,2,3,5-tetrahydroimidazo[2,1-b]quinazolin-7-yl)oxybutyramide] | 18.5 | 14,600 | 72 nM | 
